One assay deals with Tumor necrosis factor (Homo sapiens, UniProt P01375). As to the kind of experiment: Inhibitory activity against tumor necrosis factor alpha (TNF-alpha) production in LPS-stimulated human PBMCs. It counts as functional.
The target of another assay is Stromelysin-1 (Homo sapiens, UniProt P08254). The assay is described as follows: Inhibitory potency against Matrix metalloprotease-3 (MMP-3).
A further assay deals with T1, Interstitial collagenase (Homo sapiens, UniProt P03956).
T1 sequence (P03956 whole entry): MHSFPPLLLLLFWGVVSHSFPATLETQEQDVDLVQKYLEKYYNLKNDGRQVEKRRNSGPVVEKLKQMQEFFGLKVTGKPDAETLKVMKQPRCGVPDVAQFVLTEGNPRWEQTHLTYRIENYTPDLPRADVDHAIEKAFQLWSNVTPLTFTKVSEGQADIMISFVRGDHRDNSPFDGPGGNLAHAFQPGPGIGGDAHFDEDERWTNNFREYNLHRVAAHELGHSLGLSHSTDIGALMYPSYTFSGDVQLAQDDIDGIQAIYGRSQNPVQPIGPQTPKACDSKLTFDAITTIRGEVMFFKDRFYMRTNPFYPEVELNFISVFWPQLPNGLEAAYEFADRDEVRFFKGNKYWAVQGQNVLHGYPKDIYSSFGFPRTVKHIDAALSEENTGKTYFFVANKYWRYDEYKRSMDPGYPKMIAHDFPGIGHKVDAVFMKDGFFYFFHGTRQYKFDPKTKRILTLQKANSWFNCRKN
The assay is described as follows: Inhibitory potency against Matrix metalloprotease-1 (MMP-1).

Assay [1] concerns the target Disintegrin and metalloproteinase domain-containing protein 17 (Homo sapiens, UniProt P78536). The assay is described as follows: Inhibitory potency against Tumor necrosis factor alpha converting enzyme (TACE).
The target of assay [2] is 72 kDa type IV collagenase (Homo sapiens, UniProt P08253). As to the kind of experiment: Inhibitory potency against Matrix metalloprotease-2 (MMP-2).
Chain of 72 kDa type IV collagenase (P08253 whole entry): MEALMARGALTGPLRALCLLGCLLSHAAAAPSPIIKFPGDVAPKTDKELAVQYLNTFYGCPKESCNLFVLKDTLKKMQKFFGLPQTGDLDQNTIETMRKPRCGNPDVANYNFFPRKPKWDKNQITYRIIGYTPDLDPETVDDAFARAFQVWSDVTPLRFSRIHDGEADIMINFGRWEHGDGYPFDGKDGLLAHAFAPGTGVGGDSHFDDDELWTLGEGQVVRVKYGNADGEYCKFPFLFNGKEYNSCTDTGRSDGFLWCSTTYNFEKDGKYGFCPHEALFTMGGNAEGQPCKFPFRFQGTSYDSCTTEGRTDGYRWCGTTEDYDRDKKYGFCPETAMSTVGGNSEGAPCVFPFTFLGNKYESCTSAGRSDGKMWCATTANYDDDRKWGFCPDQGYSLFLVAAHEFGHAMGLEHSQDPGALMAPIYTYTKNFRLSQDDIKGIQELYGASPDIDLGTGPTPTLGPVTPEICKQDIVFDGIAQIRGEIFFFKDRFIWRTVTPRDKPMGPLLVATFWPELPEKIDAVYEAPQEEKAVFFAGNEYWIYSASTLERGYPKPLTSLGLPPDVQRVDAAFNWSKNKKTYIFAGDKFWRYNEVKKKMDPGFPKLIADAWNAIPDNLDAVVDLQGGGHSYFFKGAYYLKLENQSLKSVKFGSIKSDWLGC

Chain of Tumor necrosis factor (P01375 whole entry): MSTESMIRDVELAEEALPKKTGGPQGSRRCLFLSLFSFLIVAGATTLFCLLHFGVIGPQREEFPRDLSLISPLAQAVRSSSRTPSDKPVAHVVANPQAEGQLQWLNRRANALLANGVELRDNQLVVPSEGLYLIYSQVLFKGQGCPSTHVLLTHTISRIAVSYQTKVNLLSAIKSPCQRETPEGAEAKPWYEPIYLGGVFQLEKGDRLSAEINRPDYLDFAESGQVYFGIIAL
Chain of Stromelysin-1 (P08254 whole entry): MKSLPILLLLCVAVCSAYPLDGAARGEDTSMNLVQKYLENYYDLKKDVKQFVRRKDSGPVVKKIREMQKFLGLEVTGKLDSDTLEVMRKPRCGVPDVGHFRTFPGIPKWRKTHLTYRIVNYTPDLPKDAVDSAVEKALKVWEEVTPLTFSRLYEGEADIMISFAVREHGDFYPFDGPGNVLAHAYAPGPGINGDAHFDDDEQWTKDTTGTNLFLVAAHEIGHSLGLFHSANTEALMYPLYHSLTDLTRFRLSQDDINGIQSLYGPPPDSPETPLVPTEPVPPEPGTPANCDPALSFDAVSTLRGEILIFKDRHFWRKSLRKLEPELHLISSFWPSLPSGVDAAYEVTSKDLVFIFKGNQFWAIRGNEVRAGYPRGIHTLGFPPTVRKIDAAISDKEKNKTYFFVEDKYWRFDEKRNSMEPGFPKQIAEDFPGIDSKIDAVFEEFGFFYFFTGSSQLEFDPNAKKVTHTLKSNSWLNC
Chain of Disintegrin and metalloproteinase domain-containing protein 17 (P78536 whole entry, the tested form may be a part): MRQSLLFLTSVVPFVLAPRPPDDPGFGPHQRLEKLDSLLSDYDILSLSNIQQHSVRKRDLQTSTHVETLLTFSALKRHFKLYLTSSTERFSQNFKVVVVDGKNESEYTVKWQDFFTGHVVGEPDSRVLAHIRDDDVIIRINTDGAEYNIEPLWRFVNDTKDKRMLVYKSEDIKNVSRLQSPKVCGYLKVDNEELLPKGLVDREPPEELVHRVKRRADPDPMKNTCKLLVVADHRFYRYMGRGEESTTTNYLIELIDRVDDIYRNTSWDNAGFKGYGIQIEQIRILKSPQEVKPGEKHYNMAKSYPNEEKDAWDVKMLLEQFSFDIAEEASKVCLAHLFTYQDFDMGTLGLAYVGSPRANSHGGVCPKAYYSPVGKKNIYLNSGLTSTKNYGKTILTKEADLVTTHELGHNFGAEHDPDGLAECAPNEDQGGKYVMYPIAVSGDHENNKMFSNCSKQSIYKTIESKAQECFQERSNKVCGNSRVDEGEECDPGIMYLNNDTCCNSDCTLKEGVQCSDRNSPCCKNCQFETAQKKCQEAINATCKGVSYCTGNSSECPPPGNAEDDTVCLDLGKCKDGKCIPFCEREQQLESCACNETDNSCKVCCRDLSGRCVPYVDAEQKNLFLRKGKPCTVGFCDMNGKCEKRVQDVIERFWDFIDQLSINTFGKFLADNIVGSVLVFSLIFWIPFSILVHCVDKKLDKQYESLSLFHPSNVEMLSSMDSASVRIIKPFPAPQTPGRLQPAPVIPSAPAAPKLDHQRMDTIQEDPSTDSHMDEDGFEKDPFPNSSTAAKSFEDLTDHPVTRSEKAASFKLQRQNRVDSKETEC

Regarding `CNC(=O)[C@@H](NC(=O)[C@H](CC(C)C)[C@H](O)C(=O)NO)C(C)(C)C`, the midpoint of inhibition on Tumor necrosis factor, the IC50, lay at 1000 nM.
Turning to `CNC(=O)[C@@H](NC(=O)[C@H](c1ccc(C)cc1)[C@H](CO)C(=O)NO)C(C)(C)C`, the inhibitory constant (Ki) worked out at 15.2 nM at Stromelysin-1, 2 nM on Interstitial collagenase, 3.8 nM in assay [1] and 0.3 nM in assay [2]. At Tumor necrosis factor, this compound had an IC50 of 269 nM.
For `CNC(=O)[C@@H](NC(=O)[C@H](CC(C)C)[C@H](CO)C(=O)NO)C(C)(C)C`, the Ki on Stromelysin-1 turned out to be 9.8 nM; on Interstitial collagenase, 0.6 nM; in assay [1], 12.9 nM; in assay [2], 0.3 nM. Also, inhibition on Tumor necrosis factor was half-maximal at 1610 nM (IC50).
Take `CNC(=O)[C@@H](NC(=O)[C@H](c1ccc(OC)cc1)[C@H](CO)C(=O)NO)C(C)(C)C`: the Ki was found to be 0.9 nM at Stromelysin-1, 1.1 nM at Interstitial collagenase, 0.6 nM in assay [1] and 0.5 nM in assay [2]. Also, the 50% inhibitory concentration (IC50) on Tumor necrosis factor came out at 48 nM.
The like results for `CNC(=O)[C@@H](NC(=O)[C@H](c1ccccc1)[C@H](CO)C(=O)NO)C(C)(C)C` were, in that order, 13.2 nM, 3.5 nM, 4.9 nM, 4.8 nM and 928 nM.

As usually defined, the IC50 is the concentration that gives 50% inhibition. A word on the Ki: it is the equilibrium dissociation constant of an inhibitor or competing ligand from its target. The low end stands for a stronger hold on the target, the high end for a looser hold on the target.
